Test results taken from ChEMBL document CHEMBL1795311, “Synthesis, antiproliferative activity, and mechanism of action of a series of 2-{[(2E)-3-phenylprop-2-enoyl]amino}benzamides” (Eur J Med Chem, 2011).

Tests used:
K562 [1] = test: Antiproliferative activity against human K562 cells at 10 uM after 48 hrs by trypan blue assay; assay type: functional; details: K562, 48 h, read-out: GI
K562 [2] = test: Growth inhibition of human K562 cells after 48 hrs by trypan blue assay; assay type: functional, cell-based; details: K562, 48 h

Compound | IC50 (K562 [2]) [µM] | inhibition of growth at 10 µM (K562 [1]) [%]
NC(=O)c1ccccc1NC(=O)/C=C/c1ccccc1 | > 10 | 14.2
Cc1ccc(/C=C/C(=O)Nc2ccc(Cl)cc2C(N)=O)cc1 | 6.3 | 64

More lines, main results first:

IC50 (K562 [2]) [µM] | Compound | inhibition of growth at 10 µM (K562 [1]) [%]
> 10 | NC(=O)c1cc(Cl)ccc1NC(=O)/C=C/c1cccc(Cl)c1 | 28.2
> 10 | NC(=O)c1cc(Br)ccc1NC(=O)/C=C/c1cccc(Br)c1 | 45.9
> 10 | Cc1ccccc1/C=C/C(=O)Nc1ccc(I)cc1C(N)=O | 26.3
